Reference: paper PMC5650337, “A peptidomimetic with a chiral switch is an inhibitor of epidermal growth factor receptor heterodimerization” (Oncotarget, 2017)
Like-named read-outs stand apart in the source and are kept apart here. Values belong to the compound of their own block, whether it stands above or below them. Where a SMILES comes first, the peptide text is derived from it.

Legend:
[1] = test system: BT-474 breast tumors; assay: Xenograft model of breast cancer; assay type: in vivo, athymic nude mice; conditions: BT-474 xenograft
Method: All animals were handled according to the approved protocol from IACUC at the University of Louisiana at Monroe. Athymic nude mice (Foxn1nu/Foxn1+, female, 4–5 weeks) were purchased from Harlan Laboratories (Indianapolis, IN) and maintained in the ULM School of Pharmacy vivarium. After acclimatization of animals to the local environment, estrogen (17β-estradiol) pellets (0.72 mg, 90-day release) were implanted subcutaneously in the mice, under anesthesia. Tumors were induced in mice as described previously. Orthotopic injection of about three-million BT-474 cells suspended in the serum-free RPMI-1640 medium was done at the second left mammary fat pad. Mice were observed every day for tumor formation, and the tumor diameter was measured with calipers, and the tumor volume was calculated. When a tumor diameter of 3 mm was achieved, mice were randomly assigned to four groups of six. These groups contain negative control (vehicle control), positive control (lapatinib), and two treatment groups (compound 9 and 18). The mice were treated for 19 days. Compound 18 was administered near the base of the tumor at a dose of 4 mg/kg twice a week. Control groups received intratumor saline injections twice a week, and lapatinib was administered at 10 mg/kg once a week by intraperitoneal injection. The marker to end the experiments was based on tumor doubling time rather than tumor volume. Since tumor doubling time was 4 times in 19 days, experiments were stopped on the 19th day. Tumor-bearing mice were sacrificed, and three tumors per group were harvested and maintained at –80°C and the remaining three tumors were fixed in paraffin blocks. Microsections (5 µm) of paraffin fixed tumors were stained with hemotoxylin and eosin (H&E) and observed for necrosis by a pathologist. All data are presented as the mean ± SE. Statistical differences were evaluated by Mann-Whitney U test as well as one-way ANOVA analysis of data from different groups, and the criterion for statistical significance was p < 0.05.

[2] = target: T1, HER2:HER3 heterodimerization in tumor sections (Homo sapiens, UniProt P04626); assay: PLA on xenograft tumor sections; assay type: in vivo, athymic nude mice
T1 construct: from tissue; host or cells: BT-474 xenograft tumours grown in athymic nude mice
Method: Western blot and PLA assay were carried out on tumor sections as described before. Immunoblot analysis was performed to evaluate the levels of total HER2 and phosphorylated HER2. Tumor sections were deparaffinized using xylene and rehydrated with decreasing concentrations of ethanol. Antigen retrieval on the microsections of the breast tumors was done in a steaming sodium citrate buffer (10 mM, 0.05% Tween-20, pH 6.0) for 5 min. The tumor sections were then used to analyze inhibition of HER2:HER3 dimerization using PLA.

[3] = test system: SKBR-3 cells; assay: cells; conditions: Homo sapiens, SK-BR-3, 72 h, read-out: IC50 SKBR-3(+)
Method: (§1) Cellular assays were performed using BT-474, SKBR-3, Calu-3, MCF-7, and MCF-10A cells (ATCC). Antiproliferative activity was measured by CellTiter-Glo®, [49] a luminescence-based cell viability assay. In a 96-well plate, 1 × 10^4 cells/well were seeded and incubated overnight at 37°C and 5% CO2. Stock solutions of peptidomimetics were prepared by dissolving 1.5 mg/mL of compounds in DMSO. Stock solution of the compounds were diluted using the serum-free medium to prepare solutions of different concentrations of compounds. Compounds in the medium were added to the wells in triplicate and incubated for 72 h. As controls, cells treated with 1% sodium dodecyl sulfate and 1% dimethyl sulfoxide were used. At the end of the experiment, CellTiter-Glo® reagent was added, and luminescence was measured by a plate reader. A dose response curve was generated using luminescence vs concentration of compounds and IC50 values were obtained using Prism® (GraphPad Software, La Jolla, CA). Experiments were repeated at least three times to obtain standard deviation values.

[4] = test system: SKBR-3 cells
Method: as §1

[5] = target: T2, HER2:HER3 dimerization in transfected U2OS cells (Homo sapiens, UniProt P04626); assay: Enzyme fragment complementation (PathHunter) assay; assay type: cell-based; conditions: for Inhibition of HER2:HER3 dimerization (PathHunter): in the presence of 0.3 µM NRG1
T2 construct: host or cells: U2OS
Method: A Pathhunter assay kit was obtained from DiscoverX, and enzyme fragment complementation assay was carried out. U2OS cells transfected with HER3:HER2 were used for the assay. After cells were attached to the wells, they were incubated with compound 18 and controls at different concentration in the presence of neuregulin-1 (NRG-1) at 0.3 µM concentration. After 24 h of incubation, reagents were added, and luminescence was measured and compared with a control without any compound. A plot of luminescence versus concentration was obtained to measure the dimerization of HER3:HER2 and its inhibition by compound 18.

[6] = test system: SKBR-3 cells; design: method as in PMID 21887403, PMID 20919746, PMID 25346057, PMID 24222531, PMID 19703026; conditions: Table 2, compounds marked * reported earlier; read-out: Antiproliferative activity (IC50 µM) SKBR-3 cells; cited from earlier work
[7] = test system: MCF-7 cells; assay: Antiproliferative activity (CellTiter-Glo); assay type: cell-based; conditions: breast cancer cells that do not overexpress HER2, 72 h
Description: Erlotinib was from Sigma (Sigma-Aldrich Chemie GmbH).

[8] = target: T3, HER2 ECD (domains I to IV) (Homo sapiens, UniProt P04626); assay: Surface plasmon resonance analysis; assay type: binding; conditions: protein immobilized on CM5 chip, substance as analyte
T3 construct: Extracellular domains of proteins HER2, EGFR, HER3, and HER4 purchased from Leinco Technologies; purchased Leinco Technologies (St. Louis, MO)
Method: Surface plasmon resonance analysis was performed using GE X100. Extracellular domains of proteins HER2, EGFR, HER3, and HER4 purchased from Leinco Technologies (St. Louis, MO). […] Compound 18 and controls were used as analytes. Compound 18 at different concentrations (0 to 200 µM) was passed through an SPR chip, and binding kinetics were analyzed for each of the EGFR bindings. A blank subtracted sensorgram for compound 18 was represented.

[9] = test system: BT-474 cells; conditions: read-out: IC50 BT-474 (+); HER2-overexpressing breast cancer cells, 72 h
Method: as §1

[10] = test system: SKOV-3 cells; conditions: read-out: IC50 SKOV-3(+); HER2-overexpressing ovarian cancer cells, 72 h
Method: as §1

[11] = test system: Calu-3 cells; conditions: read-out: IC50 Calu-3 (+); HER2-overexpressing lung cancer cells, 72 h
Method: as §1

[12] = read-out: Antiproliferative activity (IC50 µM) SKBR-3 cells, Table 2, compound 18 and diastereoisomers

IC50 [3]: 13 ± 3 nM
Compound: CS(=O)(=O)CCNCc1ccc(-c2ccc3ncnc(Nc4ccc(OCc5cccc(F)c5)c(Cl)c4)c3c2)o1 [Lapatinib, reference compound]
Tumor growth versus vehicle ([1]; 19 days, 18 and 9 4 mg/kg twice a week intratumor, lapatinib 10 mg/kg once a week i.p.): significant delay in tumor growth
HER2:HER3 heterodimerization in tumor sections (PLA) [2]: red fluorescence due to dimerization of HER2:HER3

Compound: N=C(N)NCCC[C@@H]1NC(=O)[C@H]2CCCN2C(=O)[C@@H]2CCCN2C(=O)[C@H](CCCNC(=N)N)NC(=O)C[C@H](c2cccc3ccccc23)NC(=O)[C@H](Cc2ccccc2)NC(=O)[C@H](CC(=O)O)NC(=O)[C@H](CC(=O)O)NC(=O)[C@H](Cc2ccccc2)NC(=O)C[C@@H](c2cccc3ccccc23)NC1=O [compound 18-1, Cyclo(1,10)P^1p^2R^3(S-Anapa)^4F^5D^6D^7F^8(R-Anapa)^9R^10] (HELM PEPTIDE1{P.[dP].R.[O=C(C[C@H](N[*:1])c1cccc2ccccc12)[*:2]].F.D.D.F.[O=C(C[C@@H](N[*:1])c1cccc2ccccc12)[*:2]].R}$PEPTIDE1,PEPTIDE1,1:R1-10:R2$$$V2.0)
IC50 [4, 12]: > 50 µM

Compound: N=C(N)NCCC[C@@H]1NC(=O)[C@H]2CCCN2C(=O)[C@@H]2CCCN2C(=O)[C@H](CCCNC(=N)N)NC(=O)C[C@@H](c2cccc3ccccc23)NC(=O)[C@H](Cc2ccccc2)NC(=O)[C@H](CC(=O)O)NC(=O)[C@H](CC(=O)O)NC(=O)[C@H](Cc2ccccc2)NC(=O)C[C@H](c2cccc3ccccc23)NC1=O [compound 18-2, Cyclo(1,10)P^1p^2R^3(R-Anapa)^4F^5D^6D^7F^8(S-Anapa)^9R^10] (HELM PEPTIDE1{P.[dP].R.[O=C(C[C@@H](N[*:1])c1cccc2ccccc12)[*:2]].F.D.D.F.[O=C(C[C@H](N[*:1])c1cccc2ccccc12)[*:2]].R}$PEPTIDE1,PEPTIDE1,1:R1-10:R2$$$V2.0)
IC50 [4, 12]: 0.743 ± 0.35 µM

Compound: N=C(N)NCCC[C@@H]1NC(=O)[C@H]2CCCN2C(=O)[C@@H]2CCCN2C(=O)[C@H](CCCNC(=N)N)NC(=O)C[C@@H](c2cccc3ccccc23)NC(=O)[C@H](Cc2ccccc2)NC(=O)[C@H](CC(=O)O)NC(=O)[C@H](CC(=O)O)NC(=O)[C@H](Cc2ccccc2)NC(=O)C[C@@H](c2cccc3ccccc23)NC1=O [compound 18-3, Cyclo(1,10)P^1p^2R^3(S-Anapa)^4F^5D^6D^7F^8(S-Anapa)^9R^10] (HELM PEPTIDE1{P.[dP].R.[O=C(C[C@H](N[*:1])c1cccc2ccccc12)[*:2]].F.D.D.F.[O=C(C[C@H](N[*:1])c1cccc2ccccc12)[*:2]].R}$PEPTIDE1,PEPTIDE1,1:R1-10:R2$$$V2.0)
IC50 [4, 12]: 41.1 ± 3.2 µM

Compound: N=C(N)NCCC[C@@H]1NC(=O)[C@@H]2CCCN2C(=O)[C@H]2CCCN2C(=O)[C@H](CCCNC(=N)N)NC(=O)C[C@@H](c2cccc3ccccc23)NC(=O)[C@H](Cc2ccccc2)NC(=O)[C@H](CC(=O)O)NC(=O)[C@H](CC(=O)O)NC(=O)[C@H](Cc2ccccc2)NC(=O)C[C@@H](c2cccc3ccccc23)NC1=O [compound 18-4, Cyclo(1,10)p^1P^2R^3(S-Anapa)^4F^5D^6D^7F^8(S-Anapa)^9R^10] (HELM PEPTIDE1{[dP].P.R.[O=C(C[C@H](N[*:1])c1cccc2ccccc12)[*:2]].F.D.D.F.[O=C(C[C@H](N[*:1])c1cccc2ccccc12)[*:2]].R}$PEPTIDE1,PEPTIDE1,1:R1-10:R2$$$V2.0)
IC50 [4, 12]: 0.456 ± 0.13 µM

Compound: N=C(N)NCCC[C@@H]1NC(=O)[C@@H]2CCCN2C(=O)[C@H]2CCCN2C(=O)[C@H](CCCNC(=N)N)NC(=O)C[C@H](c2cccc3ccccc23)NC(=O)[C@H](Cc2ccccc2)NC(=O)[C@H](CC(=O)O)NC(=O)[C@H](CC(=O)O)NC(=O)[C@H](Cc2ccccc2)NC(=O)C[C@H](c2cccc3ccccc23)NC1=O [compound 18-5, Cyclo(1,10)p^1P^2R^3(R-Anapa)^4F^5D^6D^7F^8(R-Anapa)^9R^10] (HELM PEPTIDE1{[dP].P.R.[O=C(C[C@@H](N[*:1])c1cccc2ccccc12)[*:2]].F.D.D.F.[O=C(C[C@@H](N[*:1])c1cccc2ccccc12)[*:2]].R}$PEPTIDE1,PEPTIDE1,1:R1-10:R2$$$V2.0)
IC50 [4, 12]: 12.8 ± 1.9 µM

Inhibition of HER2:HER3 dimerization (PathHunter) [5]: shown to inhibit HER2:HER3 dimerization
Compound: Ac-f(Anapa)r-NH2 [compound 21]
IC50 [6]: 0.373 ± 0.15 µM

Compound: Cyclo(1,10)GPR- (Anapa)FDEFWR [compound 20]
IC50 [6]: > 100 µM

Compound: H2N-K(3-amino-biphenyl propionic acid)F-OH [CP, reference compound]
IC50 [7]: > 100000 nM
SPR binding to HER2 ECD [8]: no SPR response was observed
Inhibition of HER2:HER3 dimerization (PathHunter) [5]: did not inhibit HER2:HER3 dimerization
IC50 [9]: > 100000 nM
IC50 ([4]; read-out: IC50 SKBR-3(+), HER2-overexpressing breast cancer cells, 72 h): > 100 µM
IC50 [10]: > 100000 nM
IC50 [11]: > 100000 nM

Compound: NH2-Arg-Anapa-Phe-Asp-OH [compound 9]
Difference in delay of tumor growth between compound 18 and compound 9 ([1]; 4 mg/kg twice a week): not statistically significant
IC50 [6]: 0.445 ± 0.032 µM

Compound: NH2-Arg-Anapa-Phe-OH [compound 5]
IC50 [6]: 0.396 ± 0.022 µM

Compound: neuregulin-1 [reference compound]
Induction of HER2:HER3 dimerization (PathHunter) ([5]; agonist dose-response): concentration dependence of induction of dimerization
